Assay results: patent US20110171279A1, “POLYETHYLENIMINE BIOCIDES” (NDSU RESEARCH FOUNDATION, priority 2009, published 2011)
Values after ≈ are worked out from the molar mass of the structure shown. Like-named read-outs stand apart in the source and are kept apart here.

What was measured:
Type in all cases: cell-based
[1] = system: Escherichia coli; test: Growth reduction / MIC test against Escherichia coli in Luria-Bertani broth, absorbance 600 nm; conditions: for MIC: Escherichia coli, read-out: E. Coli MIC; for Percent reduction in growth of Escherichia coli: Table 3
Procedure: (§1) The antimicrobial properties of the Formulations were determined by measuring the minimum inhibitory concentration (MIC) or by using an adaptation of the MIC test. […] Additional details of the MIC method can be found at Andrews, J. M., Journal of Antimicrobial Chemotherapy (2001) 48, 5-16, incorporated herein by reference in its entirety.
(§2) In accordance with the MIC test, working solutions for each Formulation were prepared by dissolving 100 mg of each Formulation in 10 mL of methanol (Sigma-Aldrich) to generate a 10 mg/mL solution. Next, 10 ml of Luria-Bertani broth was spiked with 200 μL of the mg/mL Formulation solution to achieve a final concentration of 0.2 mg/mL.
0.2 mL of each concentration of each Formulation (spiked with E. coli) was added in triplicate to a 96-well plate. Additionally, 0.2 mL of Luria-Bertani broth without any E. coli or Formulation and 0.2 mL of Luria-Bertani broth with E. coli, but no Formulations, served as negative and positive growth controls, respectively. Plates were then placed in an incubator, at 37° C. for 24 hrs (with shaking), and then measured for growth by taking absorbance measurements at 600 nm with a multi-well plate spectrophotometer (Synergy HT). The efficacy of each Formulation was measured by determining the percent reduction in bacterial growth as a function of Formulation concentration.
Next, the antimicrobial activity of Formulations 69-77 and Reference 1 toward E. coli was measured by determining the percent reduction in bacterial growth as a function of concentration. The results for the examples were compared to various PEIs used to produce the examples.

[2] = system: Halomonas pacifica; test: Growth reduction / MIC test against Halomonas pacifica; conditions: for MIC: Bisbaumannia pacifica; for Percent reduction in growth of Halomonas pacifica: Table 6
Procedure: as §1
as §2, with “ml of Guillard's F/2 medium was spiked” for “ml of Luria-Bertani broth was spiked”, “of the 10 mg/mL Formulation” for “of the mg/mL Formulation”
0.2 mL of each H. pacifica concentration was added in triplicate to a 96-well plate. Additionally, 0.2 mL of Guillard's F/2 medium without any H. pacifica or Formulation and 0.2 mL of Guillard's F/2 medium with H. pacifica, but no Formulations, served as negative and positive growth controls, respectively. The 96-well plates were placed in an illuminated growth cabinet with a 16:8 light:dark cycle (photon flux density 33 μmol m^−2 s^−1) for 48 hrs at 18° C. and measured for chlorophyll fluorescence using a multi-well plate spectrophotometer (excitation: 360 nm; emission: 670 nm). The efficacy of each Formulation was measured by determining the percent reduction in diatom growth as a function of Formulation concentration.
(§3) The antimicrobial activity of Formulations 10-12, also derived from ETCS and PEI, was determined toward a suite of marine microorganisms, namely, Pseudoalteromonas atlantica, Cellulophaga lytica, Cobetia marina, and Halomonas pacifica. The antimicrobial activity of Formulations 10-12 was determined toward these marine microorganisms according to the methods of EXAMPLES 5-7. The MIC for each Formulation against each strain is compared to that of the PEI, ETCS, and TCS (alone) in Table 7.

[3] = system: Pseudoalteromonas atlantica; test: MIC test against Pseudoalteromonas atlantica
Procedure: as §1, §3

[4] = system: Cobetia marina; test: MIC test against Cobetia marina
Procedure: as §1, §3

[5] = system: Navicula incerta; test: Growth reduction / MIC test against Navicula incerta in Guillard's F/2 medium, chlorophyll fluorescence; conditions: Table 12; read-out: N. incerta MIC
[6] = Formulation Concentration 0.78125 μg/mL
[7] = Formulation Concentration 1.5625 μg/mL
[8] = Formulation Concentration 3.125 μg/mL
[9] = Formulation Concentration 6.25 μg/mL
[10] = Formulation Concentration 12.5 μg/mL
[11] = Formulation Concentration 25 μg/mL
[12] = Formulation Concentration 50 μg/mL
[13] = Formulation Concentration 100 μg/mL

Row | Structure (SMILES) | Percent reduction in growth of Escherichia coli [1, 6] | Percent reduction in growth of Escherichia coli [1, 7] | Percent reduction in growth of Escherichia coli [1, 8] | Percent reduction in growth of Escherichia coli [1, 9] | Percent reduction in growth of Escherichia coli [1, 10] | Percent reduction in growth of Escherichia coli [1, 11] | Percent reduction in growth of Escherichia coli [1, 12] | Percent reduction in growth of Escherichia coli [1, 13] | Percent reduction in growth of Halomonas pacifica [2, 6] | Percent reduction in growth of Halomonas pacifica [2, 7] | Percent reduction in growth of Halomonas pacifica [2, 8] | Percent reduction in growth of Halomonas pacifica [2, 9] | Percent reduction in growth of Halomonas pacifica [2, 10] | Percent reduction in growth of Halomonas pacifica [2, 11] | Percent reduction in growth of Halomonas pacifica [2, 12] | Percent reduction in growth of Halomonas pacifica [2, 13] | other results
1 | Clc1ccc(Oc2ccc(Cl)cc2OCC2CO2)c(Cl)c1 (stereo not shown) [ETCS, 2-((5-chloro-2-(2,4-dichlorophenoxy)phenoxy)methyl)oxirane] | 0.00% | 0.00% | 0.00% | 0.00% | 0.00% | 0.00% | 0.00% | 0.26% | 0.00% | 11.15% | 11.78% | 12.90% | 16.72% | 16.08% | 7.01% | 0.00% | MIC ([1]; Table 12): > 100 µg/mL; MIC ([2]; Table 7, read-out: H. pacifica MIC): > 100 µg/mL; H. pacifica MIC ([2]; Table 12): >100 µg/mL; MIC ([3]; Table 7, read-out: P. atlantica MIC): > 100 µg/mL; MIC ([4]; Table 7, read-out: C. marina MIC): > 100 µg/mL; MIC [5]: > 100 µg/mL
2 | Oc1cc(Cl)ccc1Oc1ccc(Cl)cc1Cl [TCS, triclosan] | 14.66% | 52.34% | 93.43% | 93.93% | 93.43% | 93.93% | 93.93% | 93.93% | 0.00% | 0.00% | 0.00% | 9.94% | 17.32% | 37.65% | 93.07% | 92.77% | MIC [1]: 0.781 µg/mL; MIC ([2]; read-out: H. pacifica MIC, Table 7): 50 to 100 µg/mL (≈ 173 to 345 µM); MIC ([2]; read-out: H. pacifica MIC, Table 12): 100 µg/mL (≈ 345 µM); MIC ([3]; read-out: P. atlantica MIC): 50 µg/mL (≈ 173 µM); MIC ([4]; read-out: C. marina MIC): > 100 µg/mL
